Measured values taken from patent US12398122B2, “Resolvin analogs compounds, methods and uses thereof” (VALORISATION RECHERCHE HSCM, LIMITED PARTNERSHIP, priority 2022, dated 2025).

Assays:
[1] = Reactive oxygen species (ROS) production in acellular environment (DCFH-DA probe); conditions: 1 μM, ROS generated with CuCl2 (1 mM) and H2O2 (1 mM) for 10 min
Procedure: ROS were generated by incubating in black 96-well plate with CuCl2 (1 mM) with H2O2 (1 mM) for 10 min. Subsequently, RvD1, I-1 and I-2 at 1 μM were added before the addition of the DCFH-DA probe.

[2] = test system: human isolated monocytes/macrophages-RANKL/M-CSF-derived osteoclasts; test: TRAP staining, osteoclast differentiation of RANKL/M-CSF-treated human monocytes; assay type: cell-based; conditions: 500 nM, 14 days, 50 ng/ml RANKL and 10 ng/ml M-CSF
Procedure: (§1) Murine macrophage RAW 264.7 (ATCC, Manassas, VA, USA) were cultured with AMEM/10% FBS and antibiotics at 37° C. in a humidified atmosphere with 5% CO2. Primary human monocytes were isolated from whole blood obtained from healthy volunteers. Briefly, blood was centrifuged on a Ficoll-Paque density gradient, according to the manufacturer's recommendations. Isolated monocytes were then cultured in RPMI 1640 medium supplemented with 10% FBS, and antibiotics. All donors provided written, informed consent for the use of their blood for research purposes. Experimental protocols were approved by the Research Ethics Board of the “Hôpital du Sacré-Coeur de Montreal”.
Isolated human monocytes were isolated as described previously, seeded in chambered cell culture slides at 8×10^4 cells/well, and treated with 50 ng/ml RANKL and 10 ng/ml M-CSF in the presence or absence of 500 nM of compounds I-1 and I-2 for 14 days. Culture medium was changed every 3 days. TRAP staining performed as recommended by the manufacturer. […] Results are shown in FIG. 3, where arrows show osteoclasts with three nuclei or more (b). R=RANKL; M=M-CSF.
Here, the impact of RvD1 analogues treatment on human isolated monocytes/macrophages-RANKL/M-CSF-derived osteoclasts was eveluated, by measuring their phenotypic markers, namely TRAP. […]

[3] = test system: osteoclasts from monocytes of peripheral blood of healthy donors; test: Osteoclast recruitment: differentiation of peripheral blood monocytes into osteoclasts (TRAP-positive cells); assay type: cell-based, human; conditions: 500 ng, 14 days, 50 ng/ml RANKL + 10 ng/ml M-CSF, 2×10^5 monocytes/chamber (n=3)
Procedure: The effect of RvD1 analogs on the differentiation of macrophages into osteoclasts was investigated. Monocytes from peripheral blood of healthy donors were cultured in culture chambers at 2×10^5 monocytes/chamber in the presence of 50 ng/ml RANKL+10 ng/ml M-CSF for 14 days, in the presence or absence of 500 ng of compounds I-1 and I-2 (n=3).

[4] = H2O2-induced hyaluronic acid fragmentation (agarose gel, Stains-All); conditions: HA 1 mg/ml, pretreated 1 hour at 1 or 10 μM, then 1 mM H2O2 for 4 hours; preliminary data
Procedure: Commercial hyaluronic acid was solubilised in sterilized PBS (1 mg/ml) during overnight under gentile shaking. The solution was pretreated with N-acetyl-Cysteine (NAC), RvD1, compounds I-1 and I-2 at 1 or 10 μM for 1 hour and then treated with 1 mM H2O2 during 4 hours. Samples were mixed in loading buffer containing 1M sucrose and loaded in 1% agarose/1× Tris-borate-EDTA (TBE) and pre-run the gel for 6 hours at 40V in 1× TBE buffer. The gel was then equilibrated with 30% ethanol in water and stained with Stains-All solution containing 0.1 mg Stains-All and 30% ethanol for overnight in the dark. Next, the gel was equilibrated in water for 1 hour and then exposed to light for destaining. Finally, hyaluronic acid was visualized using Alpha Imager under light transillumination. Results are shown in FIG. 4, where arrows show hyaluronic acid fragments (n=2), Al=I-1; A2=I-2.
This part of experiments was designed to investigate the ability of RvD1 analogues to protect hyaluronic acid against H2O2-induced degradation (antioxidant effect). To do so, the polymer at 1 mg/ml was pretreated by RvD1 and their analogues for 1 hour and then after treated with 1 mM H2O2 for 4 hours.

[5] = test system: MMP-13; test: Inhibition of MMP-13 production in human OA chondrocytes; assay type: cell-based; conditions: Chondrocyte, IL-1β 1 ng/ml one hour then compound 24 hours
Procedure: The effect of RvD1 analogs on the expression of MMP-13, a key enzyme involved in the degradation of OA cartilage, was investigated. Chondrocytes from human osteoarthritic cartilage were treated with IL-1β (1 ng/ml) for one hour followed by another treatment with RvD1 and its analogues for 24 hours.

[6] = Ultraviolet-induced hyaluronic acid (HA) degradation; conditions: 1 μM, HA 1 mg/ml in PBS, UV for 4 hours (n=3)
Procedure: In order to study the protective effect of RvD1 and its analogs on the stability of hyaluronic acid (HA), a solution of commercial HA was prepared in PBS at a concentration of 1 mg/ml, then exposed to Ultraviolet rays (UV) for 4 hours in the presence or absence of RvD1 and compounds I-1 and I-2 at a dose of 1 μM. 20 μg of HA were loaded into an agarose gel (1% prepared in TBE buffer). After 4 hours of migration at 40 volts, the HA was visualized after staining with Stains-All dissolved in 30% ethanol.

[7] = test system: TNFα; test: Inhibition of IL-1β-induced TNFα production in Raw264.7; assay type: cell-based, mouse; conditions: Raw264.7, 1 μM, pretreated 1 h then 1 ng/ml IL-1β for 24 h, compared to IL-1β alone
Procedure: as §1
It is well-documented that the RvD1 is considered as a potent anti-inflammatory mediator. Thus, the purpose of this part of the present study was to investigate whether compounds I-1 and I-2's capacity to inhibit pro-inflammatory cytokines, such as TNFα. To do so, Raw264.7 were pretreated with compounds I-1 and I-2 at different concentrations (0, 0.1, 0.5, and 1-μM) for 1h, followed by exposure to 1 ng/ml IL-1β for 24 h. […] As such, it may be concluded that compounds I-1 and I-2 inhibit TNFα production.

[8] = test system: COX-2; test: COX-2 protein expression by Western blotting in Raw264.7 macrophages; assay type: cell-based, mouse; conditions: Raw264.7 macrophages, 0, 0.25, 0.5, 1 μM for 1 hour, then 1 ng/ml IL-1β for 24 hours (n=2)
Procedure: 20 μg of total proteins of Raw264.7 macrophages lysates, treated under the indicated conditions, were loaded for discontinuous 4-12% sodium dodecyl sulfate-polyacrylamide gel electrophoresis. They were then transferred electrophoretically onto nitrocellulose membranes (Bio-Rad Laboratories, Mississauga, ON, Canada) for protein immunodetection and semi-quantitative measurement. The primary antibodies deployed were rabbit anti-COX-2 (Cayman Chemical Company) and mouse anti-β-actine (Sigma). […] Immunoreactive proteins were detected with SuperSignal blotting substrate (Pierce, Rockford, IL) and exposed to Kodak X-Omat™ film (Eastman Kodak Company, Rochester, NY).
Here, the hypothesis whether RvD1 analogues have the ability to modulate COX-2 protein expression was tested. Raw264.7 macrophages were pretreated with increasing doses of compound I-2 (0, 0.25, 0.5, 1-μM) for 1 hour and treated then after with 1 ng/ml IL-1β for 24 hours.

[9] = test system: human OA chondrocytes; test: Reactive oxygen species (ROS) production in human OA chondrocytes (DCFH-DA probe); assay type: cell-based; conditions: 1 μM, 0.5 mM H2O2 for 2 hours
Procedure: In a second step, the study was continued to explore the antioxidant effect of RvD1 and compounds I-1 and I-2 in a cell medium. Thus, human OA chondrocytes with osteoarthritis were seeded in black plates at a rate of 5×10^4 cells per well in 10% FBS DMEM medium (phenol red free) and incubated for 24 h at 37° C., and then treated with 0.5 mM H2O2 for 2 hours in the presence or absence of RvD1 and the compounds I-1 and I-2 at a concentration of 1 μM. The generation of ROS was measured by the addition of 10 μM of the DCFH-DA probe and fluorescence was measured using a microplate reader with Fluorescence Polarization (Polar Star Optima, BMG Labtech) set up at ex. 485 nm and em. 530 nm.

[10] = test system: Raw264.7 macrophages; test: Cell viability (MTS) assay, cytotoxicity in Raw 264.7 macrophages; assay type: cell-based, mouse; conditions: Raw264.7 macrophages, 0, 0.1, 0.25, 0.5 and 1 μM, 24 h incubation
Procedure: Murine macrophage RAW 264.7 (ATCC, Manassas, VA, USA) were cultured with AMEM/10% FBS and antibiotics at 37° C. in a humidified atmosphere with 5% CO2. Primary human monocytes were isolated from whole blood obtained from healthy volunteers. Briefly, blood was centrifuged on a Ficoll-Paque density gradient, according to the manufacturer's recommendations. Isolated monocytes were then cultured in RPMI 1640 medium supplemented with 10% FBS, and antibiotics. All donors provided written, informed consent for the use of their blood for research purposes. Experimental protocols were approved by the Research Ethics Board of the “[…] du Sacré-Coeur de Montreal”. Raw264.7 cells were treated for 24 hours with increasing concentrations of compounds I-1 and I-2 (0, 0,1, 0,25, 0,5, and 1 μM). Cell viability was assessed with MTS assay kit (Promega Corporation, Madison, WI, USA), as described by the manufacturer. Absorbance was measured with the micro-ELISA Vmax photometer (Bio-Tek Instruments, Winooski, VT, USA). Cell viability was evaluated by 3-(4,5-dimethyl-thiazoyl)-2,5-diphenyl-SH-tetrazolium bromide assay. ANOVA test was performed to compare the results. Results are expressed as mean±SEM for n=3. This part of the experiment was designed to test the cytotoxic effect of compounds 1-1 and 1-2 on mouse Raw264.7 macrophages. […]

[11] = test system: human monocyte-derived osteoclasts; test: Hydroxyapatite matrix resorption by human monocyte-derived osteoclasts (von Kossa staining); assay type: cell-based; conditions: 500 nM, M-CSF/RANKL-differentiated cells, p<0.01 (n=3)
From the text: The effect of RvD1 analogs on the resorption activity of human monocyte-derived osteoclasts was investigated. Results were obtained as described in Benabdoun et al. 2019 and are shown in FIG. 10, where data were expressed as % resorption area/osteoclast with three nuclei or more (n=3).

[12] = test system: COX-2; test: COX-2 expression in human OA chondrocytes by Western blot; assay type: cell-based; conditions: 10 μM, 1 hour then IL-1β 1 ng/ml for 24 hours
Procedure: Cells were seeded in 24-well flat plates at a confluence of 5×10^5 cells per well in 10% FBS DMEM medium and incubated for 24 h at 37° C. Then, the cells were treated with I-1 at different doses (0-10 μM) for 1 hour followed by a second treatment with IL-1β for 24 hours (1 ng/ml). COX-2 expression was assessed by Western blot by specific anti-COX-2 antibody.

CCCCC[C@H](O)c1c(/C=C/[C@@H](O)[C@@H](O)C/C=C\CCC(=O)O)nc(C)n1C [I-2, (4Z,7S,8R,9E)-7,8-dihydroxy-10-(5-((S)-1-hydroxyhexyl)-1,2-dimethyl-1H-imidazol-4-yl)deca-4,9-dienoic acid]
level of ROS in acellular medium [1]: level of ROS decreases
osteoclasts differentiation (TRAP) [2]: strongly prevent osteoclasts differentiation
formation of osteoclasts (3 or more nuclei) [3]: inhibited the formation of large osteoclasts
H2O2-induced hyaluronic acid fragmentation [4]: prevent H2O2-induced fragmentation
inhibition at 20 µM [5]: ~20%
HA degradation by UV exposure [6]: prevents HA degradation by UV exposure
reduction of TNFα level [7]: 40%
IL-1β-induced COX-2 protein expression [8]: reduced IL-1β-induced COX-2 protein expression
generation of ROS by chondrocytes [9]: significantly reduced the generation of ROS
cell viability [10]: did not alter the cell viability
erosion of the hydroxyapatite matrix (% resorption area/osteoclast) [11]: significantly reduced erosion of the hydroxyapatite matrix to almost control level

CC/C=C\C[C@H](O)/C=C/C=C\C=C\C=C\[C@@H](O)[C@@H](O)C/C=C\CCC(=O)O [RvD1, 7S,8R,17S-trihydroxy-4Z,9E, 11E,13Z,15E,19Z-docosahexaenoic acid, reference compound]
level of ROS in acellular medium [1]: level of ROS decreases
H2O2-induced hyaluronic acid fragmentation [4]: prevent H2O2-induced fragmentation
inhibition at 10 µM ([5]; 10 μM): ~20%
HA degradation by UV exposure [6]: prevents HA degradation by UV exposure
generation of ROS by chondrocytes [9]: significantly reduced the generation of ROS

CCCCC[C@H](O)c1c(/C=C/[C@@H](O)[C@@H](O)C/C=C\CCC(=O)OC)nc(C)n1C [I-1, methyl (4Z,7S,8R,9E)-7,8-dihydroxy-10-(5-((S)-1-hydroxyhexyl)-1,2-dimethyl-1H-imidazol-4-yl)deca-4,9-dienoate]
level of ROS in acellular medium [1]: level of ROS decreases
osteoclasts differentiation (TRAP) [2]: strongly prevent osteoclasts differentiation
formation of osteoclasts (3 or more nuclei) [3]: inhibited the formation of large osteoclasts
H2O2-induced hyaluronic acid fragmentation [4]: prevent H2O2-induced fragmentation
inhibition at 20 µM [5]: ~20%
HA degradation by UV exposure [6]: prevents HA degradation by UV exposure
reduction of TNFα level [7]: 40%
generation of ROS by chondrocytes [9]: significantly reduced the generation of ROS
cell viability [10]: did not alter the cell viability
erosion of the hydroxyapatite matrix (% resorption area/osteoclast) [11]: significantly reduced erosion of the hydroxyapatite matrix to almost control level
COX-2 expression [12]: reduces COX-2 expression
